{"source": "patent US20250073348A1", "about": "“CAMPTOTHECIN CONJUGATES” (priority 2018, published 2025)", "key": {"DEL": {"test_system": "DEL", "test": "In vitro cytotoxicity, CellTiter-Glo, 96 h", "assay_type": "cell-based", "settings": "Table 6", "experimental": "(§1) In vitro potency was assessed on multiple cancer cell lines. All cell lines were authenticated by STR profiling at IDEXX Bioresearch and cultured for no more than 2 months after resuscitation. Cells cultured in log-phase growth were seeded for 24 hours in 96-well plates containing 150 μl RPMI 1640 supplemented with 20% FBS. Serial dilutions of antibody-drug conjugates in cell culture media were prepared at 4× working concentrations, and 50 μl of each dilution was added to the 96-well plates. Following addition of test articles, cells were incubated with test articles for 4 days at 37° C. After 96 hours, growth inhibition was assessed by CellTiter-Glo® (Promega, Madison, WI) and luminescence was measured on a plate reader. The EC50 value, determined in triplicate, is defined here as the concentration that results in 50% reduction in cell growth relative to untreated controls.\n(§2) In the following Tables IC50 values for ADCs and CPT free drugs are given in ng/mL and […] concentrations, respectively, with parenthetic values representing percent cells remaining at the highest concentration tested (1000 ng/mL for ADCs and 1 μM for CPT free compound, unless otherwise indicated) relative to untreated cells. Cell viability was determined by CellTiter-Glo staining after 96 h exposure to ADC. ND=Not Determined. […]"}, "[1]": {"test_system": "DEL-BVR (DEL brentuximab vedotin resistant line)", "test": "In vitro cytotoxicity on MDR+ line, CellTiter-Glo, 96 h", "assay_type": "cell-based", "settings": "Table 6", "experimental": "as §1, §2"}, "[2]": {"settings": "1000 ng/mL, relative to untreated cells"}}}
{"substance": "Ag2-vcMMAE (8): vcMMAE conjugate on Ag2; \"Ag2 refers to cAC10, which targets the CD30 antigen\"", "values": [{"measurement": "percent cells remaining at the highest dose tested, DEL", "setting": "DEL; [2]", "result": 1, "unit": "%"}, {"measurement": "IC50 DEL", "setting": "DEL; Ag2(+) parental DEL, 96 h", "result": 0.0005, "unit": "µg/mL"}, {"measurement": "percent cells remaining at the highest dose tested, DEL/BVR", "setting": "[1]; [2]", "result": 93, "unit": "%"}, {"measurement": "IC50 DEL/BVR", "setting": "[1]; Ag2(+), MDR(+) DEL-BVR, 96 h", "result": ">1", "unit": "µg/mL"}]}
